Data set [1] concerns ulceration induced by pylorus-ligation. The experiment in a line: Effect on the ulceration induced by pylorus-ligation in rats. As to conditions: for ED50: Rattus norvegicus, po, 30 minutes before ligation, rats, 18 hours, ulcer index 0 to 5, read-out: ED50 (dose required for 50% inhibition of ulcer index). The data set is classed as in vivo, male Wistar strain rats. As to the method: [II] Effect on the ulceration induced by pylorus-ligation in rats: Male Wistar strain rats (weighing about 190 g) were fasted for 48 hours before experiment. The pylorus of each rat was ligated under ether anaesthesia according to the method of Shay et al. [cf. Shay, H., et al., Gastroenterology, 5, 43-61 (1945)]. Each of the animals was then allowed to stand abstained from food and water in a cage. After 18 hours, the animals were sacrificed under ether anaesthesia, and the stomachs were removed and cut open along the greater curvature. […] 4: marked ulcers more than two 5: perforated ulcer The ulcer index in drug treated groups was compared to that in the control group, and thereby, the inhibitory percentage was calculated and then ED50, i.e. the dose required for 50% inhibition of ulcer index, was determined by the usual graphic method. Drugs to be tested were suspended in 0.5% tragacanth solution and administered 30 minutes before the ligation. In the control group, a vehicle (0.5% tragacanth solution) was administered.

The test system of the next data set is gastric secretion. The experiment in a line: Effect on gastric secretion in rats (pylorus ligation, total acid content). It is filed as in vivo, male Wistar strain rats. The following applies: for ED50: Rattus norvegicus, po, 30 minutes before ligation, rats, 4 hours after ligation, read-out: ED50 (dose required for 50% reduction of acid content). As to the method: [III] Effect on gastric secretion in rats: Male Wistar strain rats (weighing, about 200 g) were fasted for 24 hours before experiment. The pylorus was ligated under ether anaesthesia. Four hours after the ligation, the stomach was removed under ether anaesthesia. The gastric content was collected and centrifuged, and the secretory volume, pH and acid content of the supernatant were measured. The acid content was measured by titrating to pH 7.0 with 0.02N NaOH using pH meter (Hitachi Horiba, M-5). The total acid content of the drug treated groups was compared with that of the control group, and thereby, the reduction percentage of acid content was calculated and then ED50, i.e. the dose required for 50% reduction of acid content, was determined by the usual graphic method. Drugs to be tested were suspended in 0.5% tragacanth solution and administered orally 30 minutes before the ligation. In the control group, a vehicle (0.5% tragacanth solution) was administered.

The subject of data set [2] is ulceration induced by exposure to stress (restraint and water immersion). Kind of data set: Effect on the ulceration induced by exposure to stress (restraint and water immersion). It is filed as in vivo, male Wistar strain rats. The following applies: for ED50: Rattus norvegicus, po, 30 minutes before immersion, rats, read-out: ED50 (dose required for 50% inhibition of the ulcer index). As to the method:
[I] Effect on the ulceration induced by exposure to stress (restraint and water immersion): Male Wistar strain rats (weighing, about 200 g) were placed in a stress cage which served to immobilize the animals therein and then immersed in a water bath of 23° C. to the height of xiphoid of the animals according to the method of Takagi et al. [cf. Takagi, K. and Okabe, S., Japan. J. Pharmacol., 18, 9 (1968)]. After 20 hours, the animals were sacrificed and the stomach was removed. The stomach was inflated with 13 ml of saline and placed in 5% formalin solution for 5 minutes. After washing with saline, the stomach was cut open along the greater curvature and the length (mm) of each lesion in the glandular portion was measured using a dissecting microscope (×12). The sum of the length (mm) of each lesions in a stomach was indicated as an ulcer index. In case of reference experiment using butylscopolamine bromide, a photograph of the mucosal surface of stomach was taken after the stomach was treated in the same manner as described above. The photograph was magnified by nine times, and the sum of the area (mm^2) of each lesions in a stomach was indicated as an ulcer index. The ulcer index in drug treated groups was compared with that in control group, and thereby, inhibitory percentage was calculated and then ED50 value, i.e., the dose required for 50% inhibition of the ulcer index, was determined by the usual graphic method. Drugs to be tested were suspended in 0.5% tragacanth solution and administered orally 30 minutes before the immersion. In the control group, a vehicle (0.5% tragacanth solution) was administered.

Data set [3] has as its system contraction of ileum preparation by acetylcholine. Kind of data set: Anti-acetylcholine action (isolated ileum contraction by acetylcholine). Details: species or system male Hartley guinea-pigs. The following applies: for IC50 (50% inhibition concentration), contraction of ileum by acetylcholine: acetylcholine chloride 2×10^-8 g/ml, drug added 2 minutes prior, 35° C.; for anti-acetylcholine activity (in words): isolated guinea-pig ileum. As to the method:
[IV] Anti-acetylcholine action:
A piece of ileum, taken from male Hartley guinea-pigs (weighing 250-350 g) was suspended longitudinally in a bath containing Tyrode solution (20 ml) under constant bubbling of 95% oxygen and 5% carbon dioxide gas at 35° C. The contraction of the preparation by acetylcholine chloride (2×10^-8 g/ml) was recorded on an oscillograph (Nihonkoden, RJG-3004) via an isotonic transducer (Nihonkoden, TD-111S). Drugs to be tested (Compound A and Compound C) were added to the bath 2 minutes prior to the application of acetylcholine chloride. The average percent inhibition of the test Compound A against the contraction of ileum preparation by acetylcholine is shown in the accompanying FIG. 1. Based on the average percent inhibition on the graph, IC50, i.e. 50% inhibition concentration of the test compound, was calculated. […] IC50 of Compound C was calculated likewise. As a result, it was 1.9× 10^-6 g/ml.

For data set [4] the following is noted: U.S. Pat. No. 3,542,785 and 3,668,207; cited from earlier work.
For data set [5] the following is noted: U.S. Pat. No. 3,542,785 and 3,668,207; cited from earlier work. The source holds these as a separate data set.
The next data set relates to pupil size. The experiment in a line: Mydriatic action in rats. The data set is classed as in vivo, male Wistar strain rats. As to conditions: for Percent mydriasis: one hour after administration, 3 mm dilation = 100 percent. An excerpt: [IV] Mydriatic action in rats:
Male Wistar strain rats (weighing, 150-200 g) were used. Pupil size of the animals was twice measured microscopically just before and one hour after administration of drugs at a distance of 30 cm from the source of a constant light (30 W fluorescent light) according to the method of Pulewka [cf. Arch. exp. Path. U. Pharmakol., 168, 307 (1932)]. Based on the change between the first measured pupil size and the second measured pupil size, mydriasis percentage was calculated provided that mydriasis percentage is supposed to be 100 percent in case of 3 mm dilation of pupil size in diameter. Drugs to be tested were suspended in 0.5% tragacanth solution and administered. In the control group, a vehicle (0.5% tragacanth solution) was administered.

For data set [6] the following is noted: U.S. Pat. No. 4,237,135 and U.K. Pat. No. 2,017,698; cited from earlier work.
[7] abbreviates: ulcer index = sum of length (mm) of lesions.
[8] abbreviates: 1 mg/kg p.o., ulcer index = sum of length (mm) of lesions.
The mark [9] stands for this setting: 2 mg/kg p.o., ulcer index = sum of length (mm) of lesions.
Setting [10] is: 5 mg/kg p.o., ulcer index = sum of length (mm) of lesions.

The source of these data is US4677107A, “Anti-peptic ulcer agent” (Dainippon Pharmaceutical Co., Ltd., priority 1983, dated 1987).

Counter-ions that a name gives are not always drawn. Like-named read-outs stand apart in the source and are kept apart here. Bounds are passed on as bounds.

One may read the ED50 as the midpoint of the dose-response relation. With `CN/C(=N/CCSCc1nc[nH]c1C)NC#N` [Cimetidine, reference compound], the “Ulcer index Inhibitory %” value came to 0% in data set [1] (50 mg/kg p.o.); 9.1% in data set [1] (100 mg/kg p.o.); 42.4% in data set [1] (200 mg/kg p.o.); 75.8% in data set [1] (500 mg/kg p.o.); 29.1% in data set [2] (20 mg/kg p.o., ulcer index = sum of length (mm) of lesions); 75.0% in data set [2] (50 mg/kg p.o., ulcer index = sum of length (mm) of lesions). Also, in data set [2] (100 mg/kg p.o., ulcer index = sum of length (mm) of lesions), the “Ulcer index Inhibitory %” value stood at 77.0%. The 50% effective dose (ED50) came out at 253 mg/kg in data set [1], 26.8 mg/kg in the data set on gastric secretion and 26.9 mg/kg in data set [2] (setting [7]). Moreover, the “Total acid content Reduction %” value in the data set with gastric secretion (10 mg/kg p.o.) is recorded as 9.4%; in the data set with gastric secretion (20 mg/kg p.o.), 44.0%; in the data set on gastric secretion (50 mg/kg p.o.), 71.6%.
In the case of `O=C(O)/C=C\C(=O)O.c1ccc(-c2cc(N3CCNCC3)nc3ccccc23)cc1` [Compound C, 2-(1-piperazinyl)-4-phenylquinoline monomaleate], the “Ulcer index Inhibitory %” value amounted to 37.5% in data set [1] (5 mg/kg p.o.); 43.8% in data set [1] (10 mg/kg p.o.); 56.3% in data set [1] (20 mg/kg p.o.); 75.0% in data set [1] (50 mg/kg p.o.); 45.8% in data set [2] (0.2 mg/kg p.o., ulcer index = sum of length (mm) of lesions); 55.5% in data set [2] (0.5 mg/kg p.o., ulcer index = sum of length (mm) of lesions). In addition, the “Ulcer index Inhibitory %” value in data set [2] (setting [8]) was found to be 55.9%; in data set [2] (setting [9]), 73.6%; in data set [2] (setting [10]), 71.8%. Moreover, the results for the median effective dose (ED50) (in data set [1]; in the data set with gastric secretion; in data set [2] (setting [7])) were 14 mg/kg, 1.1 mg/kg and 0.45 mg/kg, respectively. For the same compound, the “Total acid content Reduction %” value in the data set with gastric secretion (1 mg/kg p.o.) is listed as 45.3%; in the data set with gastric secretion (2 mg/kg p.o.), 71.3%; in the data set on gastric secretion (5 mg/kg p.o.) it was 86.3%. In data set [3], the “IC50 (50% inhibition concentration), contraction of ileum by acetylcholine” value turned out to be 1.9 µg/mL. Also, the “anti-acetylcholine activity (in words)” value in data set [3] is listed as “extremely weak”.
With `Clc1ccc2nc(N3CCN(c4ccccc4)CC3)cc(-c3ccccc3)c2c1` [6-chloro-2-(4-phenyl-1-piperazinyl)-4-phenylquinoline], the anti-inflammatory activity result in data set [4] is “have anti-inflammatory activity”. The diuretic activity entry in data set [5] was “diuretic activity”.
Consider `CCCC[N+]1(C)[C@@H]2C[C@@H](OC(=O)[C@H](CO)c3ccccc3)C[C@H]1[C@@H]1O[C@@H]12` (stereo partly shown) [Butylscopolamine bromide, butylscopolamine bromide, reference compound], for which the “Ulcer index Inhibitory %” value is recorded as 19.0% in data set [1] (50 mg/kg p.o.); 28.6% in data set [1] (100 mg/kg p.o.); 38.1% in data set [1] (200 mg/kg p.o.); -2.1% in data set [2] (20 mg/kg p.o., ulcer index = sum of area (mm^2) of lesions); 44.1% in data set [2] (50 mg/kg p.o., ulcer index = sum of area (mm^2) of lesions); 97.8% in data set [2] (100 mg/kg p.o., ulcer index = sum of area (mm^2) of lesions). The ED50 is greater than 200 mg/kg in data set [1], 25 mg/kg in the data set with gastric secretion and 49.1 mg/kg in data set [2] (ulcer index = sum of area (mm^2) of lesions from photograph). Moreover, the “Total acid content Reduction %” value in the data set with gastric secretion (20 mg/kg p.o.) is 44.3%; in the data set on gastric secretion (50 mg/kg p.o.) it was 71.0%; in the data set with gastric secretion (100 mg/kg p.o.) it was 83.7%.
For the compound `CCN1CCN(c2cc(-c3ccccc3)c3ccccc3n2)CC1` [Compound A, 2-(4-ethyl-1-piperazinyl)-4-phenylquinolinedihydrochloride], the “Ulcer index Inhibitory %” value in data set [1] (5 mg/kg p.o.) came out at 35.3%; in data set [1] (10 mg/kg p.o.), 41.2%; in data set [1] (20 mg/kg p.o.), 52.9%; in data set [1] (50 mg/kg p.o.) it was 76.5%; in data set [2] (setting [8]) it was 15.5%; in data set [2] (setting [9]), 40.8%. Besides, the “Ulcer index Inhibitory %” value in data set [2] (setting [10]) stood at 85.2%; in data set [2] (10 mg/kg p.o., ulcer index = sum of length (mm) of lesions), 88.4%. In addition, the ED50 in data set [1] was determined as 16 mg/kg; with gastric secretion, 1.8 mg/kg; in data set [2] (setting [7]), 2.8 mg/kg. The “Total acid content Reduction %” value in the data set on gastric secretion (0.5 mg/kg p.o.) was determined as 18.2%; in the data set on gastric secretion (1 mg/kg p.o.), 34.7%; with gastric secretion (2 mg/kg p.o.), 54.5%; in the data set on gastric secretion (5 mg/kg p.o.) it was 73.1%. Also, the Percent mydriasis in the data set on pupil size (5 mg/kg p.o.) worked out at 4.0%; with pupil size (10 mg/kg p.o.), 2.7%; with pupil size (20 mg/kg p.o.) it was 2.7%; with pupil size (50 mg/kg p.o.), 1.3%; in the data set with pupil size (100 mg/kg p.o.), 2.6%. Further, the “mydriatic action (in words)” value in the data set on pupil size (rats, up to 100 mg/kg) is reported as “did entirely not show any mydriatic action even in a dose of 100 mg/kg”. Moreover, the “IC50 (50% inhibition concentration), contraction of ileum by acetylcholine” value in data set [3] turned out to be 1.2 µg/mL. Moreover, the “anti-acetylcholine activity (in words)” value in data set [3] is “extremely weak”.
As for `CN1CCN(c2cc(-c3ccccc3)c3cc(Cl)ccc3n2)CC1` [6-chloro-2-(4-methyl-1-piperazinyl)-4-phenylquinoline], the anti-reserpine activity result in data set [6] is “weak anti-reserpine activity”. Also, in data set [4], the anti-inflammatory activity result was “have anti-inflammatory activity”. For the same compound, in data set [5], the diuretic activity result is recorded as “diuretic activity”.
